Data taken from PMC8825254, “Rational design of Striga hermonthica-specific seed germination inhibitors” (Plant Physiology, 2021).
Read-outs that look alike come from different tables or passages of the source.

Tests used:
[1] = biological target: T1, ShHTL7 (Striga hermonthica, UniProt A0A0M3PNA2); test: YLG hydrolysis competition assay with ShHTL7; type: biochemical
T1 sequence (A0A0M3PNA2 1-271): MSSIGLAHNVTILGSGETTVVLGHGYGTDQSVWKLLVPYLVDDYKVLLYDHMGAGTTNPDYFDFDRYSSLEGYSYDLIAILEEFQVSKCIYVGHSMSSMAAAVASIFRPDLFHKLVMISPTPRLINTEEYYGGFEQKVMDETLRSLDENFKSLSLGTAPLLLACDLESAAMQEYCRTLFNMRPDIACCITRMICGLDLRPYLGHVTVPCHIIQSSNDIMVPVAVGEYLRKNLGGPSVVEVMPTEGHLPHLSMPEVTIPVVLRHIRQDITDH
Procedure: About 0.33 µM of ShHTL7 protein was used to conduct in vitro hydrolysis of YLG (1 µM) as a substrate in a total volume of 100 µL of phosphate-buffered saline (1× PBS) containing 0.1% DMSO in 96-well black plate (Greiner Kremsmünster, Austria; [Tsuchiya et al., 2015]). The hydrolysis of YLG over time and changes in the fluorescence intensity was measured by SpectraMax i3 (Molecular Devices, San Jose, CA, USA) using an excitation wavelength of 480 nm and detection wavelength of 520 nm and recorded at 10 min intervals for 2 h. YLG in 1× PBS without protein was used as a control. […] Measurement of the fluorescence was conducted in SpectraMax i3 (Molecular Devices) using the above-mentioned method. The relative fluorescence unit was calculated by subtracting the auto-fluorescence of YLG in the buffer from the fluorescence values of YLG in the presence of a protein. The inhibitory curve and IC50 were determined using https://www.aatbio.com/tools/ic50-calculator website.

[2] = biological target: T2, OsD14 (Oryza sativa subsp. japonica, UniProt Q10QA5); test: YLG hydrolysis competition assay with OsD14; type: biochemical, rice (Oryza sativa)
T2 construct: made in house; host or cells: Escherichia coli BL21 (DE3)
T2 sequence (Q10QA5 1-318): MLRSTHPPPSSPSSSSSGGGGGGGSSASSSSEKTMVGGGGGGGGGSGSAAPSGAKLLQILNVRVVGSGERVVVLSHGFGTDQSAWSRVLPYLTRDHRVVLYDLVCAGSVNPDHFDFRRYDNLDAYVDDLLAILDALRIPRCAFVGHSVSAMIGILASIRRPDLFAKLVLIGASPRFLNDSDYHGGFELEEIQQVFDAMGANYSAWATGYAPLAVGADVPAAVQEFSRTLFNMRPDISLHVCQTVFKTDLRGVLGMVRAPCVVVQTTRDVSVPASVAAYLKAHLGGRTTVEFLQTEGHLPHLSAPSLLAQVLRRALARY

[3] = tested on: Striga hermonthica seeds; test: Striga seed germination bioassay (seeds from Sudan); type: in vivo; conditions: for Reduction in Striga seed germination compared to the GR24 treatment: 20-40 µM inhibitor
Procedure: Striga seeds were surface sterilized by 20% Sodium hypochlorite (NaClO) for 10 min followed by successive 6 times washing with sterilized MilliQ water. Seeds were kept to dry under the laminar flow cabinet, and ∼50–100 sterilized Striga seeds were spread uniformly on a glass fiber filter paper disc (9 mm). For preconditioning, around 12 discs were put in a petri plate on a filter paper moistened with 3 mL sterilized MilliQ water. Plates were then sealed with parafilm and kept in an incubator for 10 d at 30°C (in dark). After preconditioning, plates were removed from the incubator and dried, and discs were pre-treated with different concentrations (0, 5, 10, 20, 40, 80, 160, 320, and 640 μM) of KK023-N1, KK023-N2, Triton X-100, or KK094 for 24 h. Next day, a combination of the inhibitors (same concentrations) along with GR24 (0.5 nM or 1 nM) was applied, and discs were incubated at 30°C for 24 h. For inhibitory effect of KK023-N1 and -N2 on Striga seeds obtained from Kenya, seeds were treated with (0, 3, 6, 12, 25, 50,100, 200, 400, and 800 μM). After image scanning, germinated and nongerminated seeds were counted and germination rate (%) was calculated by using SeedQuant software ([Braguy et al., 2021)].

[4] = tested on: Rice seeds (cv Nipponbare); test: Rice germination and seedling growth in response to inhibitors; type: in vivo, rice (Oryza sativa); conditions: result in words
Procedure: Rice seeds (cv Nipponbare) were surface sterilized in 2.5% NaClO and 0.05% of Tween-20 for 10 min, and rinsed 6 times with sterilized MilliQ water. Seeds were imbibed in sterilized water at 30°C for 24 h in the dark. Next day, ∼3 mL of each inhibitor at different concentrations (3, 6, 12, 25, 50, and 100 μM) was added along with 0.5 Murashige and Skoog (MS) medium into 24-well plate, and one imbibed rice seed was placed in each well. The experiment was performed in six replications (one plant/well, n = 6) for each concentration. Nontreated rice seeds in 0.5-MS solution were included as a control. Seeds were allowed to germinate at 30°C in the dark for 48 h for monitoring seeds germination, and seeds were moved to a growth chamber with white fluorescent light (130–180 μM m^−2 s^−1) and12 h:12 h (Light/Dark (L/D)) period at 28°C. After 1 week, length of rice seedlings was measured and recorded, and pictures of seedlings were taken.

[5] = biological target: ShHTL5 (Striga hermonthica, UniProt A0A0M5I297); test: YLG hydrolysis competition assay with ShHTL5; type: biochemical; conditions: result in words
[6] = biological target: T1, ShHTL7; test: DSF thermal stability of ShHTL7; type: binding; conditions: for Effect on SYPRO orange fluorescence peak of ShHTL7: 0 to 100 µM, result in words
Procedure: About 10 µM of ShHTL7 purified protein was incubated with various concentrations of KK023-N1, Triton X-100, or KK094 (ranging from 0 to 100 µM) for 30 min. Then SYPRO Orange (reporter dye) was added to 1× final concentration. The reactions were carried out in 25 µL 1× PBs buffer. The assay was performed on CFX96 Real-Time System (BIO-RAD, Hercules, CA, USA) thermal cycler on 96-well quantitative polymerase chain reaction (qPCR) white plate, and the plate was sealed with adhesive qPCR plate seal to prevent samples evaporation ([Bai et al., 2019]). First, samples were heated to 25°C for 1 min followed by linear increase in the temperature ramp from 25°C to 99°C at a rate of 0.5°C/15 s. The change in the protein folding was monitored by the changes in the fluorescence of the reporter dye, and the data were analyzed by the machine software that plots the inflection point of fluorescence against temperature. Data were exported into Excel, and replicates were averaged to generate the graph.

[7] = biological target: T1, ShHTL7; parameters: method as in Holbrook-Smith et al., 2016; Yoneyama, 2016; conditions: previously reported, ref Holbrook-Smith et al., 2016, Yoneyama, read-out: IC50, competitive inhibition of ShHTL7-mediated YLG hydrolysis; cited from earlier work
[8] = tested on: Striga hermonthica; test: Striga emergence study in infested rice pots under greenhouse conditions; type: in vivo, Striga hermonthica on rice cv IAC165; conditions: for Change in Striga emergence compared to mock: Figure 10B; for Rice plant height, change: Striga-infested pots, Figure 10C
Procedure: Approximately 6,000 Striga seeds (20 mg) were weighed, mixed with sand/soil mixture (1:2 ratio), and put into a 3-L perforated plastic pot containing 0.5-L clean sand/soil mixture in the bottom. The pots were kept under greenhouse-controlled conditions at 30°C and kept moist with water for Striga preconditioning for 10 d. Formulated KK023-N1 and Triton X-100 were applied (at 100 mL per pot) at 10 and 100 µM concentration. Then three rice seedlings (cv IAC165, 10 d old) were planted in each pot after 24 h of inhibitor application. All the treatments were applied continuously twice per week for 4 weeks. Water with same amount of solvent (Cyclohexanone+Atlas-G) was used as a control. Pots were irrigated with 200 mL of Hoagland’s nutrient solution with low phosphate (4 µM) when needed. The rice plants were allowed to grow under greenhouse conditions for 10 weeks and the emerged Striga plants were counted from each pot. The height of rice plants was also measured to see impact of Striga infestation on host growth.

[9] = tested on: Rice d17 seedlings; test: Rice micro tillering assay, SL-deficient mutant d17 with GR24; type: in vivo, rice (Oryza sativa); conditions: compound with 1.0 µM GR24; result in words
Procedure: (§1) Rice seeds of WT (cv Nipponbare) or SL-deficient mutant (d17), were surface sterilized with 2.5% NaClO and 0.05% of Tween-20 for 10 min, and rinsed 6 times with sterilized MilliQ water. About 30 seeds were placed on sterilized Magenta GA-7 plant culture box containing 0.5% MS medium with 0.4% agar and incubated at 30°C in dark. After 2 d, boxes were moved to a growth chamber and allowed to grow for another 5 d under fluorescent white light (130–180 μM m^−2 s^−1). Equally grown seedlings were transplanted in 50-mL black tubes filled with Hoagland nutrient solution (1 seedling/tube). Seedlings were treated with 10, 50, and 100 µM of each compound (KK023-N1, Triton X-100, and KK094). The compounds were applied twice a week for 2 weeks to test their effects on the growth of WT plants. SL-deficient seedlings (d17) were treated as WT but with the addition of 1 µM GR24. Number of tillers per plant, plant height, and dry biomass were measured at final harvest.

[10] = tested on: Rice WT (cv Nipponbare) seedlings; test: Rice micro tillering assay, WT, hydroponics; type: in vivo, rice (Oryza sativa); conditions: 10, 50 and 100 µM, 2 weeks, result in words
Procedure: as §1

[11] = 0.33 µM ShHTL7, 1 µM YLG, read-out: IC50, inhibition of ShHTL7-mediated YLG hydrolysis

Chain of ShHTL5 (A0A0M5I297 entry or part of it): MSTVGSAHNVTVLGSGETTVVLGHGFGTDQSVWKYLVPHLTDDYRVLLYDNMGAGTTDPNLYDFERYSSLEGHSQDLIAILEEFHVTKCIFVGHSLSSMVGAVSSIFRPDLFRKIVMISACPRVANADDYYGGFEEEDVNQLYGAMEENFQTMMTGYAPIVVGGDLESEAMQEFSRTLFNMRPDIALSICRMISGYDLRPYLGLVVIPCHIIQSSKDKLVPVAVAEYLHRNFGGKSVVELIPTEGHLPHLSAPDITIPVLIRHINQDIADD

Molecule: COc1ccc(CCCc2cccc3c2CCN3C(=O)n2nccn2)cc1 [KK023-N2]
- IC50 [1]: 2150 nM
- IC50 ([2]; Figure 3D-F, mean ± SD, n = 3, no unit printed with values (x-axis µM), read-out: IC50, OsD14-mediated YLG hydrolysis (Figure 3)): > 50 µM
- Reduction in Striga seed germination compared to the GR24 treatment ([3]; GR24 0.5 or 1.0 nM): around 42%
- Effect on rice seedling plant height ([4]; all treatments (3-100 µM), 1 week): no effect on plant height was observed
- Effect on rice seed germination ([4]; up to 100 µM): did not detect any effect on seed germination
- Phenotype of treated rice seedlings versus control ([4]; up to 100 µM): did not show any significant phenotypic difference
- Effect on YLG hydrolysis by ShHTL5 [5]: did not influence the YLG hydrolysis

Molecule: CC1=C[C@H](O/C=C2/C(=O)O[C@@H]3c4ccccc4C[C@H]23)OC1=O [GR24]
- IC50 [1, 11]: 270 nM
- IC50 ([2]; 0.33 µM OsD14, 1 µM YLG, read-out: IC50, inhibition of OsD14-mediated YLG hydrolysis): 2.59 µM
- Decrease of ShHTL7 melting temperature [6]: 7 °C
- Melting temperature of ShHTL7 ([6]; high concentrations of compound, 50°C without): 43 °C

Molecule: CCOC(=O)C1(Cc2cccc(C(F)(F)F)c2)CCN(Cc2ccc(C#CCCO)cc2)CC1 [Soporidine]
- IC50 [7]: 12500 nM

Molecule: Triton X-100 [reference compound]
- IC50 [1, 11]: 470 nM
- Reduction in Striga seed germination compared to the GR24 treatment ([3]; GR24 0.5 or 1.0 nM): 31%
- Change in Striga emergence compared to mock ([8]; 10 µM): -13%
- Rice plant height, change ([8]; 10 µM): -23%
- Change in Striga emergence compared to mock ([8]; 100 µM): -25%
- Rice plant height, change ([8]; 100 µM): -4%
- Effect on SYPRO orange fluorescence peak of ShHTL7 [6]: reduction in the peak fluorescence
- Effect on GR24 action on tillering of d17 rice [9]: did not block the GR24 effect on rice tillers

Molecule: O=C(N1CCc2ccccc21)n1ccnn1 [KK094]
- IC50 [1]: > 25000 nM
- Effect on dry biomass of WT rice [10]: reduction in plant height and dry biomass
- Effect on plant height of WT rice [10]: reduction in plant height
- Effect on tillering of WT rice [10]: significant increase in rice tillering
- Reduction in Striga seed germination ([3]; 20 µM inhibitor, GR24 0.5 or 1.0 nM): 50%
- Inhibition of Striga seed germination ([3]; 80 µM, result in words): complete inhibition
- inhibition at 100 µM ([3]; Striga hermonthica, 100 µM): 100%
- Effect on SYPRO orange fluorescence peak of ShHTL7 [6]: did not change the fluorescence peak
- Effect on GR24 action on tillering of d17 rice [9]: blocked D14, resulting in increased tillering phenotype
